Earlier results, collected in US20240000730A1, “ANTIHISTAMINE SEMI-SOLID CHEWABLE GEL COMPOSITIONS AND METHODS OF MAKING AND USING THEREOF” (Seattle Gummy Company, priority 2021, published 2024).

What was measured:
[1] = ITC measurements
[2] = ITC measurements; remark: listed apart in the source
[3] = ITC measurements; remark: listed apart in the source

O=C(O)COCCN1CCN(C(c2ccccc2)c2ccc(Cl)cc2)CC1 (stereo not drawn) [Cetirizine, cetirizine]
association constant K(a) of the cetirizine-α-cyclodextrin complex [1]: 1434 ± 60 M⁻¹ | association constant K(a) of the cetirizine-β-cyclodextrin complex [2]: 5641 ± 358 M⁻¹ | association constant of the cetirizine-γ-cyclodextrin complex [3]: 1200±50 (−1)
